Laboratory results from patent US20240116994A1, “Peptides And Use Thereof For Diagnosing And Treating Antiphospholipid Syndrome” (UNIVERSITE DE GENEVE, priority 2021, published 2024).
Where no end group is shown, it is not given here. The star is where a group is joined. Biotin = O=C1N[C@H]2[C@H](CS[C@H]2CCCCC(=O)*)N1

What was measured:
[1] = system: aPL (pool from APS patients); assay: Determination of aPL by ELISA on coated peptides / biotinylated peptides (custom immunoassay); type: binding, Human; settings: for increase fold mean of aPL interaction relative to β2GP1: ELISA, 1/10 dilution of aPL pool, reference reduced β2GP1 (FIG. 1A)
Description: Determination of aPL by ELISA—MaxiSorp™ 96 well plates (Nunc) or Streptavidin plate (Thermofisher) were coated with 10 μg/ml recombinant domains of β2GP1, peptides or biotinylated-peptide prior to incubation with aPLA. Secondary anti-human antibodies conjugated to IR800CW (Rockland) or HRP were used. Protein- or peptide-bound antibodies were detected and quantified by the Odyssey system (Li-Cor Biosciences) or absorbance in optical densities (OD) was determined at 405 nm (molecular Devices™ Filtermax).
(§1) The de Groot's research group has pointed at the importance of hydrophobic character of the plate during coating of R39-R43 epitope. In order to abrogate of the plate-dependent aPL binding, the Ia-1 and Ib-1 peptides as well as the R39-R43 with a biotin at their N-terminal were synthetized and coated a streptavidin plate. In this configuration, the different peptides are flag oriented in the space preventing any interaction with the plate. It was thus observed that the flag-type orientation of R39-R43-biot leads to 8.52×more interaction with aPL while they show 9.63×more binding for Ib-1-biot presenting the same position. […] The surface plasmon resonance (SPR) technique is used to determine the relative avidity of aPL for R39-R43-biot and Ib-1-biot. The interaction between aPL and immobilized R39-R43-biot or Ib-1-biot is monitored by flowing various concentrations of aPL over a R39-R43-biot- or Ib-1-biot-coated chip surface (FIG. 1C). Through SPR experiments, it appears that aPL avidity for Ib-1-biot presents a resonance unit (RU) of 51.49 at 1/1,000 of dilution and a RU of 27.61 at 1/10,000 of dilution while, at the same dilution, it present a RU of 27.36 and a RU of 17.99 with R39-R43-biot, respectively (FIG. 1C). However, at higher concentrations, the peptides seems to show no differences in the interactions with aPL. […] Considering that IgG valency, it was decided to generate a dimeric Ib-1-biot peptide (Ib-1-biot-2x). This new polypeptide carries thus two optimized epitopes which have the opportunity to interact with two Fab fragment present on aPL. […] At higher concentration, i.e dilution of 1/100, the avidity for dimeric peptide is 28×more than for the monomeric (FIG. 1D).
It was performed a peptide substitution scan of Ib-1-biot VSRGGMRKKKKPLTG (SEQ ID NO: 6) carrying the optimized epitope Ib-1-biot and based on an exchange of the underlined amino acid positions with the 20 main amino acids. The resulting peptide microarrays contained 140 different peptides. It was observed that the peptide substitution of the position n° 1, 2, 12 and 15 have significant influences on the ability to interact with aPL from patients 1, 2, 3, 4 and, in particular, form the plasma pool. Indeed, the substitution of the position 1, 12 or 15 by an Arginine (R) or a Lysine (K) increases the avidity of the peptide for all aPL from patients. […] In this context, the enhancement relative to Ib-1.0-biot-2x of identified peptides was evaluated (FIG. 2A). […] However, streptavidin being known to produce unspecific binding, it was used the ratio between aPL and a pool of human plasma as control (B/B0) (FIG. 2B, upper panel). This representation therefore allows to distinguish the real levels of interactions. It was then performed a dilution assay from dilution of 1/100 to 1/1,200,000 and it was observed relevant differences between the different identified peptides. By comparison of area under the curve (AUC), it was possible to detect the most prone-interacting peptide with aPL. Thus, the peptide IIa-8.0-biot-2x obtained the higher AUC (FIG. 2B, bottom panel). To formally quantify the ability of aPL to interact with IIa-8.0-biot-2x, it was monitored by flowing various concentrations of aPL over a IIa-8.0-biot-2x-coated chip surface (FIG. 2C). […] In FIG. 2C, bottom panel, it can be appreciated more precisely the improvement of the quality of interactions. […]

[2] = system: aPL from a pool of 13 Human patients; assay: Surface plasmon resonance, aPL flown over biotin-peptide-coated SA chip (BIAcore X100); type: binding; settings: for sustained interaction / stability of binding with aPL (shape of SPR curves): stabilization curves
Description: The kinetics and affinity of protein-protein and protein-lipid interactions were determined using a BIAcore X100 instrument. 1 mg/ml of biotin-tagged peptide (ligand) was immobilized using a sensor chip SA (GE Healthcare) surface, whereas aPL from a pool of 13 Human patients were flown as analyte. The first flow cell of the sensor chip was used as a control surface (no protein), whereas the second flow cell was employed as the active surface. A range of dilution of aPL analytes prepared in the same buffer was injected on both flow cell surfaces at a flow rate of 30 μl/min. Association and dissociation times for each protein injection were set at 90 and 120 s, respectively. In all cases, sensorgrams were obtained from three different dilutions of aPL.
as §1
It was performed a peptide substitution scan of Ib-1-biot VSRGGMRKKKKPLTG (SEQ ID NO: 6) carrying the optimized epitope Ib-1-biot and based on an exchange of the underlined amino acid positions with the 20 main amino acids. The resulting peptide microarrays contained 140 different peptides. It was observed that the peptide substitution of the position n° 1, 2, 12 and 15 have significant influences on the ability to interact with aPL from patients 1, 2, 3, 4 and, in particular, form the plasma pool. Indeed, the substitution of the position 1, 12 or 15 by an Arginine (R) or a Lysine (K) increases the avidity of the peptide for all aPL from patients. […] In this context, the enhancement relative to Ib-1.0-biot-2x of identified peptides was evaluated (FIG. 2A). […] However, streptavidin being known to produce unspecific binding, it was used the ratio between aPL and a pool of human plasma as control (B/B0) (FIG. 2B, upper panel). This representation therefore allows to distinguish the real levels of interactions. It was then performed a dilution assay from dilution of 1/100 to 1/1,200,000 and it was observed relevant differences between the different identified peptides. By comparison of area under the curve (AUC), it was possible to detect the most prone-interacting peptide with aPL. Thus, the peptide IIa-8.0-biot-2x obtained the higher AUC (FIG. 2B, bottom panel). […]

[3] = system: binding of aPL to IIa-8.0-biot-2x; assay: Inhibition experiments: remaining reactivity of pre-treated aPL on IIa-8.0-biot-2x ELISA; parameters: species or system Human; settings: aPL pool sera preincubated 90 min at RT with 1, 10 and 10011 g/ml peptide
Description: To examine the functional ability of IIa-5.0, IIa-7.1, IIa-8.0 peptides and R39-R43 to inhibit the activity of pool of aPL isolated from APS patients, the remaining reactivity of aPL was evaluated for IIa-8.0-biot-2x which had previously been treated with increasing concentration of peptides. […] The flag-type orientation prevents potential interactions with the plate or with itself, particularly in solution. Streptavidin magnetic beads associated with IIa-5.0-biot-2x, IIa-7.1-biot-2x and Ha-8.0-biot-2x peptides have been generated. aPL was treated with increasing concentrations of beads before to measure the remaining binding activity of aPL on IIa-8.0-biot-2x ELISA (FIG. 7C).
To assess the ability of IIa-5.0-2x, IIa-7.1-2x and IIa-8.0-2x to inhibit in vitro the binding of aPL to IIa-8.0-biot-2x. aPL pool sera were preincubated for 90 min at RT with increasing concentrations (1, 10 and 10011 g/ml) of monomeric, dimeric IIa-5.0, IIa-7.1 and IIa-8.0 peptides and of IIa-5.0-biot-2x, IIa-7.1-biot-2x and IIa-8.0-biot-2x-associated beads (15, 30 and 60 pmol). 120 pmol correspond to the amount of IIa-8.0-biot-2x coated in well of Streptavidin Coated High Capacity Plates 96 well plates (Thermofisher). After the pre-incubation time, the serum was added anti-b2GP1 IgG (anti-IIa-8.0-2x) ELISA according to the protocol.

[4] = after a dilution of 100× of aPL (1/1,000) (FIG. 1B)
[5] = streptavidin plate, N-terminal biotin, 1/10 dilution of aPL pool (FIG. 1B)
[6] = aPL at 1/1,000 of dilution (FIG. 1C)
[7] = aPL at 1/10,000 of dilution (FIG. 1C)

VSRGGMRKFIKPLTG [Ia-1, corresponding to the first substitution scan]
increase fold mean of aPL interaction relative to β2GP1 [1]: 3.47 fold

R39-R43-biot: R39-R43 peptide with a biotin at its N-terminal (Biotin-VSRGGMRKFICPLTG) [reference compound]
interaction with aPL of flag-oriented biotinylated peptide versus nude peptide [1, 4]: 2.83 × | interaction with aPL of flag-oriented biotinylated peptide versus nude peptide [1, 5]: 8.52 × | resonance unit (RU), aPL avidity [2, 6]: 27.36 RU | resonance unit (RU), aPL avidity [2, 7]: 17.99 RU | sustained interaction / stability of binding with aPL (shape of SPR curves) [2]: neither R39-R43-biot nor Ib-1-biot have sustained interaction with aPL

Ib-1-biot: monomeric Ib-1 peptide with a biotin at its N-terminal (Biotin-VSRGGMRKKKKPLTG)
interaction with aPL of flag-oriented biotinylated peptide versus nude peptide [1, 4]: 4.3 × | interaction with aPL of flag-oriented biotinylated peptide versus nude peptide [1, 5]: 9.63 × | resonance unit (RU), aPL avidity [2, 6]: 51.49 RU | resonance unit (RU), aPL avidity [2, 7]: 27.61 RU | sustained interaction / stability of binding with aPL (shape of SPR curves) [2]: neither R39-R43-biot nor Ib-1-biot have sustained interaction with aPL

RSRGGMRKRKKPLTG [IIa-8.0]
inhibition of aPL binding to IIa-8.0-biot-2x ELISA by peptide in solution [3]: prevents their further binding to IIa-8.0-biot-2x ELISA

VSRGGMRKFICPLTG [R39-R43, reference compound]
increase fold mean of aPL interaction relative to β2GP1 [1]: same ability to interact with aPL than β2GP1 | inhibition of aPL binding to IIa-8.0-biot-2x ELISA by peptide in solution [3]: failed to significantly inhibit

VSRGGMRKRKKKKTG [IIa-7.1]
inhibition of aPL binding to IIa-8.0-biot-2x ELISA by peptide in solution [3]: prevents their further binding to IIa-8.0-biot-2x ELISA

VSRGGMRKKKKPLTG [Ib-1, corresponding to the second substitution scan]
increase fold mean of aPL interaction relative to β2GP1 [1]: 5.5 fold

VSRGGMRKRKKPLTK [IIa-5.0]
inhibition of aPL binding to IIa-8.0-biot-2x ELISA by peptide in solution [3]: prevents their further binding to IIa-8.0-biot-2x ELISA

B1: Dom MI: recombinant Domain I-II of β2GP1 (protein)
chain: GRTCPKPDDLPFSTVVPLKTFYEPGEEITYSCKPGYVSRGGMRKFICPLTGLWPINTLKCTPRVCPFAGILENGAVRYTTFEYPNTISFSCNTGFYLNGADSAKCTEEGKWSPELPVCAP
increase fold mean of aPL interaction relative to β2GP1 [1]: same ability to interact with aPL than β2GP1
